Here are results for seven compounds from patent publication US20240307283A1, “COMPOSITIONS AND METHODS FOR DECREASING PIGMENTATION” (The General Hospital Corporation, priority 2021, published 2024).

What all share (assay type): cell-based
For experiment [1], the system named is human skin explants (Fitzpatrick skin type 2). The experiment is described as follows: Prevention of UVB-driven pigmentation in human skin explants. The settings on record: UVB 150 mJ/cm^2. On the procedure:
(§1) Skin samples considered surgical waste were obtained de-identified from healthy donors (IRB #2013P000093) undergoing reconstructive surgery, according to institutional regulations. Full thickness human abdominal skin explants were cultured in petri dishes with a solid phase and liquid phase phenol red free DMEM medium containing 20% penicillin/streptomycin/glutamine, 5% fungizone (Gibco), and 10% fetal bovine serum. Compounds were applied strictly on top of the explants, making sure no drip occurred into the underlying media. For UV irradiation experiments, a UV lamp (UV Products) was used at 1000 mJ/cm^2 UVB.
The ability of a number of NNT activators to prevent UVB-driven pigmentation of skin was evaluated in human skin explants (Fitzpatrick skin type 2) with application of UVB 150 mJ/cm^2. […]

In a further experiment the test system is human skin explants. The experiment in a line: Depigmentation of human skin explants by NNT activators. The settings on record: for ability to depigment skin: after 36 hours, FIGS. 13A-B; for ability to depigment skin / Dose needed to depigment within 36 h (skin type 2): DMSO-based carrier; for Dose needed to depigment within 36 h (skin type 2): single dose or lower end of the dose range. As to the method: as §1
The ability of ASS, Usnic acid, 4-hexylresorcinol, candesartan, Nigericin, elaidylphosphocholine, hexitidine, naproxol, and Ginkgolic acid to depigment skin was tested in human skin explants. A DMSO-based carrier solution was used. DMSO was used as a negative control. […]

In a further experiment the test system is mouse B16 melanoma cells. The experiment in a line: In vitro depigmentation of B16 melanoma cells. Particulars: 2 uM or 10 uM, DMSO-based carrier, 1-5 days (average 1.5 days), FIG. 12A. On the procedure: (§2) The ability of 2 uM or 10 uM ASS, Usnic acid, 4-hexylresorcinol, candesartan, Nigericin, and Ginkgolic acid to depigment was evaluated in mouse B16 melanoma cells and melan-A melanocytes. A DMSO-based carrier solution was used, and the experiments carried out for 1-5 days, with an average of 1.5 days. 4-n-Butylresorcinol, N-Acetylcystein (NAC), and Phenylthiourea (PTU), were used as a positive control, and DMSO as a negative control.

The test system of experiment [2] is mouse melan-A melanocytes. The experiment is described as follows: In vitro depigmentation of melan-A melanocytes. The settings on record: 2 uM or 10 uM, DMSO-based carrier, 1-5 days (average 1.5 days), FIG. 12B. As to the method: Murine Melan-A (Bennett et al., 1987) cells were obtained from the Wellcome Trust Functional Genomics Cell Bank. Melan-A cells were grown in RPMI 1640 supplemented with 10% FBS or FetalPlex (Gemini Bio-Products, #100-602), 100,000 U/L penicillin, 100 mg/L streptomycin sulphate, 100× Glutamax, and 200 nM TPA.
as §2

`CO[C@@H]1C[C@@H](C[C@H]2CC[C@H](C)[C@H]([C@@H](C)C(=O)O)O2)O[C@]2(O[C@](C)([C@H]3CC[C@@](C)([C@@H]4O[C@@H]([C@H]5O[C@@](O)(CO)[C@H](C)C[C@@H]5C)C[C@@H]4C)O3)C[C@H]2C)[C@@H]1C` [Nigericin]: the “Dose needed to inhibit UVB-induced tanning (skin type 2)” value in experiment [1] was in the range of 10 to 100 µM. Besides, the “ability to depigment skin” value in the experiment with human skin explants is reported as “depigmenting effects”. For the same compound, in the experiment with human skin explants (human skin explants), the “Dose needed to depigment within 36 h (skin type 2)” value stood at 5 µM. The ability to depigment entry (in the experiment with mouse B16 melanoma cells; in experiment [2]) was “depigmenting effects” in each case.

For `CC(=O)Oc1ccccc1C(=O)O` [ASS, Acetylsalicylic Acid], the “Dose needed to inhibit UVB-induced tanning (skin type 2)” value in experiment [1] was 10 µM. The “ability to depigment skin” value with human skin explants is recorded as “depigmenting effects”. Also, the “Dose needed to depigment within 36 h (skin type 2)” value with human skin explants (human skin explants) is ≥ 5 µM. The ability to depigment result (in the experiment with mouse B16 melanoma cells; in experiment [2]) was “depigmenting effects” each time.

`CC(=O)c1c(O)c(C)c(O)c2c1OC1=CC(=O)C(C(C)=O)C(=O)C12C` (stereo not shown) [Usnic acid, usnic acid]: in experiment [1], the “Dose needed to inhibit UVB-induced tanning (skin type 2)” value came to 100 µM. Besides, the “Dose needed to depigment within 36 h (skin type 2)” value in the experiment with human skin explants (human skin explants) was ≥ 5 µM.

With `CCCCCCCC/C=C/CCCCCCCCOP(=O)([O-])OCC[N+](C)(C)C` [elaidylphosphocholine, [(E)-octadec-9-eny] 2-(trimethylazaniumyl)ethyl phosphate], in the experiment on human skin explants, the “ability to depigment skin” value is “depigmenting effects”.

As to `CCCCCCc1ccc(O)cc1O` [4-hexylresorcinol], the “Dose needed to inhibit UVB-induced tanning (skin type 2)” value in experiment [1] was determined as 1000 µM. For the same compound, the “ability to depigment skin” value with human skin explants was “depigmenting effects”. Also, the “Dose needed to depigment within 36 h (skin type 2)” value with human skin explants (human skin explants) came out at 5 µM. Moreover, the ability to depigment result (in the experiment with mouse B16 melanoma cells; in experiment [2]) was “depigmenting effects” each time.

As to `CCOc1nc2cccc(C(=O)O)c2n1Cc1ccc(-c2ccccc2-c2nnn[nH]2)cc1` [candesartan, 1-((2′-(1H-Tetrazol-5-yl)-[1,1′-biphenyl]-4-yl)methyl)-2-ethoxy-1H-benzo[d]imidazole-7-carboxylic acid], the “Dose needed to inhibit UVB-induced tanning (skin type 2)” value in experiment [1] fell in the range of 1000 to 10000 µM. Further, the “ability to depigment skin” value in the experiment with human skin explants is “depigmenting effects”. In the experiment with human skin explants (human skin explants), the “Dose needed to depigment within 36 h (skin type 2)” value was ≥ 50 µM. The ability to depigment result (with mouse B16 melanoma cells; in experiment [2]) was “depigmenting effects” in each case.

Consider `CCCCCC/C=C\CCCCCCCc1cccc(O)c1C(=O)O` [Ginkgolic acid], for which the “Dose needed to inhibit UVB-induced tanning (skin type 2)” value in experiment [1] was found to be 100 µM. Besides, in the experiment with human skin explants (FIG. 13C), the “lightening by Fontana Masson and H&E staining” value is “displayed lightening effects”; the nuclear capping entry was “Nuclear capping was present”. In addition, the “ability to depigment skin” value in the experiment with human skin explants is “depigmenting effects”. Moreover, in the experiment with human skin explants (human skin explants), the “Dose needed to depigment within 36 h (skin type 2), result in words” value is recorded as “n.s” and the “Dose needed to depigment within 36 h (skin type 2)” value was ~50 µM. Besides, in the experiment on mouse B16 melanoma cells, the ability to depigment entry was “depigmenting effects”. Besides, the ability to depigment entry in experiment [2] is “depigmenting effects”.
